The target of series [1] is T1, CYP2D6 (Homo sapiens, UniProt P10635). Briefly: CYP2D6 inhibition in pooled human liver microsomes. It counts as in vitro ADME. Particulars: 10 μM compound, dextrorphan formation rate. More on the design: Pooled human liver microsomes (HLM, final concentration 0.05 mg protein/mL); tissue BD Biosciences 452161; host or cells: pooled human liver microsomes. In outline:
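Pooled HLM (0.05 mg/mL) in 0.1 M KPi pH 7.4 with 5 μM dextromethorphan and 10 μM test compound, preincubated 5 min at 37 °C, then started with NADPH-regenerating system for 5 min. Dextrorphan quantified by LC/MS/MS; activity expressed as % of vehicle; <70% considered significant.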
(Liver microsomes are vesicles of endoplasmic reticulum, rich in cytochrome P450 enzymes.)

The target in a further series is T2, PTH receptor 1 (Mus musculus, UniProt P41593).
T2 construct: host or cells: MC3T3-E1 subclone 4
T2 sequence (P41593 27-591): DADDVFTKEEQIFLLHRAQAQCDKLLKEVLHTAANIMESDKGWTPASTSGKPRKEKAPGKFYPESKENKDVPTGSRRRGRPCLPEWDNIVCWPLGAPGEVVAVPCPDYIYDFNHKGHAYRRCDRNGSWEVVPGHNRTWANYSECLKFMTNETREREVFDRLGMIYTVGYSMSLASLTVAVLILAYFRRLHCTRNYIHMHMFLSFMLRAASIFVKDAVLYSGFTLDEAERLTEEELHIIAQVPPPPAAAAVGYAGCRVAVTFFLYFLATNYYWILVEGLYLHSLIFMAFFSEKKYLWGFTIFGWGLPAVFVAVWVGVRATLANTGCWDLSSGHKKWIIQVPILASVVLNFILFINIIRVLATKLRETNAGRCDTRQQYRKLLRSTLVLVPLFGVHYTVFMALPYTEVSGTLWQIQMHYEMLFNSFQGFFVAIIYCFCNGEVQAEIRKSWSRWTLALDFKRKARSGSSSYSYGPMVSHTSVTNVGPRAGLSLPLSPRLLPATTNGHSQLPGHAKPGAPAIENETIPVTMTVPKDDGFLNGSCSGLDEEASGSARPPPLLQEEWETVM
Briefly: MC3T3-E1 cAMP efficacy assay. Type of series: cell-based, murine. Particulars: MC3T3-E1 cells; for EC50: 100 μM IBMX, 37° C.; for Emax ± SEM [pmol/well]: maximally inducible cAMP. How it is done: MC3T3-E1 cells were seeded at 10,000 cells/well in 96-microtiter plates and grown overnight before the efficacy assays. On the day of analysis the growth medium was carefully removed by suction. Cells were washed once with 200 μl TB/0.1% […]. The buffer was replaced with 100 μl reaction mixture (±test peptide, +100 μM IBMX) and incubated at 37° C. for 13 min. The reaction was stopped by addition of 25 μl of ice-cold 0.5 M HCl. Cells were in the following incubated on ice for 60 min. 75 μl acetate-buffer were added to each well in a 96-well cAMP FlashPlate. […] FlashPlates were incubated overnight at 4° C., emptied by suction and counted in a TopCounter.
Determinations were performed in triplicates at all doses. Standards were included as single determinations, duplicates or triplicates in each experiment, preferentially on each plate.
Efficacy was evaluated in the concentration range from […].
Concentration-dependent cAMP responses were imported into GraphPad Prism vers. 4, transformed and plotted. Curves were fitted with a function for sigmoidal dose response curve non-linear fit Y=Bottom+(Top-Bottom)/(1+10̂((LogEC50-X))) where X is the logarithm of concentration and Y is the response. Y starts at Bottom and goes to Top with a sigmoid shape. pEC50 and the maximally inducible concentration of cAMP were evaluated. Overall statistical differences were analyzed using one-way ANOVA. Post-hoc comparisons were made by the use of Fisher's Least Significance Test. Results were considered significant, when p was lower than 0.05.

Series [2] deals with T3, Saos-2 PTH1R (Homo sapiens, UniProt Q03431).
T3 construct: endogenous in cells; host or cells: Saos-2
T3 sequence (Q03431 27-593): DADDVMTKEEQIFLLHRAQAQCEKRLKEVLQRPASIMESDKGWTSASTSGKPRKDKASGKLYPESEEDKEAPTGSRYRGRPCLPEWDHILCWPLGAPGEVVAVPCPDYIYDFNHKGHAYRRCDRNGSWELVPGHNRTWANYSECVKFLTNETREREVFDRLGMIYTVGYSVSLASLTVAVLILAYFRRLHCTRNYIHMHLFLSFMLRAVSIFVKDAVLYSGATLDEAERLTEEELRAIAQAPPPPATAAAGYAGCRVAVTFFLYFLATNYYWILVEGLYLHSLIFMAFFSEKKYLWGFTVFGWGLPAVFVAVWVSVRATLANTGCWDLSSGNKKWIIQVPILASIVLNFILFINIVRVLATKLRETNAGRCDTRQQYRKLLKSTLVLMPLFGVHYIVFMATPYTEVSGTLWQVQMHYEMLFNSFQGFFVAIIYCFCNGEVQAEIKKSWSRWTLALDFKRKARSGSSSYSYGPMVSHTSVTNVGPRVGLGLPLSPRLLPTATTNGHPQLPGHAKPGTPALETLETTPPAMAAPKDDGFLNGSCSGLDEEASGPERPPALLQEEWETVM
Description: cAMP-efficacy assay in Saos-2 cells. It counts as cell-based. In outline: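 cAMP accumulation was assayed by FlashPlate after 15 min peptide stimulation at 37 °C of Saos-2 cells in Tyrode's buffer containing 100 μM IBMX and 0.1% BSA, with the reaction stopped by ice-cold HCl. Variable-slope logistic fitting gave EC50/pEC50, Hill coefficient and Emax, with single or triplicate points.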

Series [3] addresses Saos-2 PTH1R (UniProt Q03431). Briefly: cell-based or functional assay.
Series [4] addresses T1, CYP2D6. Description: cell-based or functional assay.
Series [5] has as its target PTH receptor 1 on MC3T3-E1 cells (murine) (UniProt P41593). Description: cell-based or functional assay.

“Also recorded” adds a separate entry of the source. Bridge positions count the residues as written; N and C are the ends. Square brackets hold non-standard residues; d marks the D form. Peptide text beside a SMILES is read from it. hArg = N=C(N)NCCCC[C@H](N)C(=O)O; Ac5c = NC1(C(=O)O)CCCC1; Aib = CC(C)(N)C(=O)O

T1 sequence (P10635 whole entry): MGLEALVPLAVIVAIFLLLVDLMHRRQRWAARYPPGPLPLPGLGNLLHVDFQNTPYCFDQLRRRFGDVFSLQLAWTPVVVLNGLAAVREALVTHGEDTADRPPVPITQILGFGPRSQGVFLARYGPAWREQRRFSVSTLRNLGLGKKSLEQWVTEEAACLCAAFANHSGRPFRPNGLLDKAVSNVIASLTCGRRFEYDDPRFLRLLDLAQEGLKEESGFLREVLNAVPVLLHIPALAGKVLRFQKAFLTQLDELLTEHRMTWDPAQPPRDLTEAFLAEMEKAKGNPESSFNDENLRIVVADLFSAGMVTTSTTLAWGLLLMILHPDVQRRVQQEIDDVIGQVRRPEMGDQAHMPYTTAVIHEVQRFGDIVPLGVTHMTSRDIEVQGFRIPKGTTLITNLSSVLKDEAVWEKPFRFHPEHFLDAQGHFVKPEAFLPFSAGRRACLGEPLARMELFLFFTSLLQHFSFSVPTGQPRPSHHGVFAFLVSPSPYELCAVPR

The EC50 is the concentration needed to bring the measured effect to its halfway point. Turning to `CC[C@H](C)[C@H](NC(=O)[C@H](CCC(=O)O)NC(=O)C(C)(C)NC(=O)[C@@H](NC(=O)C1(N)CCCC1)C(C)C)C(=O)N[C@@H](CCC(N)=O)C(=O)N[C@@H](CC(C)C)C(=O)N[C@@H](CCSC)C(=O)N[C@@H](Cc1c[nH]cn1)C(=O)N[C@@H](CCC(N)=O)C(=O)N[C@@H](CCCCNC(=N)N)C(=O)N[C@@H](C)C(=O)N[C@H]1CCCCNC(=O)C[C@@H](C(N)=O)NC(=O)[C@H](CC(C)C)NC(=O)[C@H](Cc2c[nH]c3ccccc23)NC1=O` [SEQ ID NO: 30, H-Ac5c-Val-Aib-Glu-Ile-Gln-Leu-Met-His-Gln-Har-Ala-Lys( )-Trp-Leu-Asp( )-NH2] (H-[Ac5c]V[Aib]EIQLMHQ[hArg]AKWLD-NH2; lactam 13-16), the “CYP2D6 activity (% of vehicle)” value on CYP2D6 [1] is listed as 83 % of vehicle. In addition, the 50% effective concentration (EC50) on PTH receptor 1 (cAMP) was 10 nM; on Saos-2 PTH1R [2] (cAMP, 100 μM IBMX, 37° C. 15 min, suffix of label = salt tested) it was 81.3 nM. Moreover, the “Emax ± SEM [pmol/well]” value on PTH receptor 1 was 5.0 ± 0.2 pmol/well. In addition, the “Emax ± SEM” value on Saos-2 PTH1R [2] (relative effect to the control (SEQ ID NO: 32)) was 1.04 ± 0.05.

`CC[C@H](C)[C@H](NC(=O)[C@H](CCC(=O)O)NC(=O)C(C)(C)NC(=O)[C@@H](NC(=O)C1(N)CCCC1)C(C)C)C(=O)N[C@@H](CCC(N)=O)C(=O)N[C@@H](CC(C)C)C(=O)N[C@@H](CCSC)C(=O)N[C@@H](Cc1c[nH]cn1)C(=O)N[C@@H](CCC(N)=O)C(=O)N[C@@H](CCCCNC(=N)N)C(=O)N[C@@H](C)C(=O)N[C@H]1CCCCNC(=O)C[C@@H](C(N)=O)NC(=O)[C@H](CC(N)=O)NC(=O)[C@H](CC(C)C)NC(=O)[C@H](Cc2c[nH]c3ccccc23)NC1=O` [SEQ ID NO: 2, H-Ac5c-Val-Aib-Glu-Ile-Gln-Leu-Met-His-Gln-Har-Ala-Lys( )Trp-Leu-Asn-Asp( )-NH2] (H-[Ac5c]V[Aib]EIQLMHQ[hArg]AKWLND-NH2; lactam 13-17): the “CYP2D6 activity (% of vehicle)” value at CYP2D6 [1] is listed as 67 % of vehicle. For the same molecule, at PTH receptor 1 (cAMP), the “potency comparison in words” value is “EC50 comparable to PTH(1-34); also recorded: significantly more potent than SEQ ID NO: 31, SEQ ID NO: 3 and SEQ ID NO: 42”. The molecule also showed a concentration giving a half-maximal response (EC50) at PTH receptor 1 (cAMP) of 1 nM. Moreover, the “Emax ± SEM [pmol/well]” value on PTH receptor 1 amounted to 4.9 ± 0.8 pmol/well. Moreover, the “potency compared to linear / non-stabilized counterparts, in words” value on Saos-2 PTH1R [2] (cAMP) was “significantly higher potency”; at Saos-2 PTH1R [2] (cAMP, listed as 2) it was “increased potencies”; at Saos-2 PTH1R [2] (cAMP, listed as SEQ ID NO:2), “significantly higher potency”.

Turning to `CC[C@H](C)[C@H](NC(=O)[C@H](CCC(=O)O)NC(=O)[C@H](CO)NC(=O)[C@@H](NC(=O)[C@@H](N)CO)C(C)C)C(=O)N[C@@H](CCC(N)=O)C(=O)N[C@@H](CC(C)C)C(=O)N[C@@H](CCSC)C(=O)N[C@@H](Cc1c[nH]cn1)C(=O)N[C@@H](CC(N)=O)C(=O)N[C@@H](CC(C)C)C(=O)NCC(=O)N[C@@H](CCCCN)C(=O)N[C@@H](Cc1c[nH]cn1)C(=O)N[C@@H](CC(C)C)C(=O)N[C@@H](CC(N)=O)C(=O)N[C@@H](CO)C(=O)N[C@@H](CCSC)C(=O)N[C@@H](CCC(=O)O)C(=O)N[C@@H](CCCNC(=N)N)C(=O)N[C@H](C(=O)N[C@@H](CCC(=O)O)C(=O)N[C@@H](Cc1c[nH]c2ccccc12)C(=O)N[C@@H](CC(C)C)C(=O)N[C@@H](CCCNC(=N)N)C(=O)N[C@@H](CCCCN)C(=O)N[C@@H](CCCCN)C(=O)N[C@@H](CC(C)C)C(=O)N[C@@H](CCC(N)=O)C(=O)N[C@@H](CC(=O)O)C(=O)N[C@H](C(=O)N[C@@H](Cc1c[nH]cn1)C(=O)N[C@@H](CC(N)=O)C(=O)N[C@@H](Cc1ccccc1)C(=O)O)C(C)C)C(C)C` [SEQ ID NO: 32, reference compound], on PTH receptor 1, the “agonism on PTH receptor cAMP signalling” value is “robust cAMP response” and the “Emax ± SEM [pmol/well]” value came out at 4.4 ± 0.4 pmol/well.

B1: H-Ac5c-Val-Aib-Glu-Ile-Gln-Leu-Met-His-Gln-Har-Ala-Lys-Trp-Leu-Asn-Asn-NH2 (peptide)
chain: H-[Ac5c]V[Aib]EIQLMHQ[hArg]AKWLNN-NH2
SMILES: CC[C@H](C)[C@H](NC(=O)[C@H](CCC(=O)O)NC(=O)C(C)(C)NC(=O)[C@@H](NC(=O)C1(N)CCCC1)C(C)C)C(=O)N[C@@H](CCC(N)=O)C(=O)N[C@@H](CC(C)C)C(=O)N[C@@H](CCSC)C(=O)N[C@@H](Cc1c[nH]cn1)C(=O)N[C@@H](CCC(N)=O)C(=O)N[C@@H](CCCCNC(=N)N)C(=O)N[C@@H](C)C(=O)N[C@@H](CCCCN)C(=O)N[C@@H](Cc1c[nH]c2ccccc12)C(=O)N[C@@H](CC(C)C)C(=O)N[C@@H](CC(N)=O)C(=O)N[C@@H](CC(N)=O)C(N)=O
For the molecule B1, in the series with Saos-2 PTH1R [3], the Emax, cAMP efficacy assay in Saos-2 cells (3T, trifluoroacetate salt) (relative to control (SEQ ID NO: 32)) came out at 1.06 and the pEC50, cAMP efficacy assay in Saos-2 cells (3T, trifluoroacetate salt) is 8.04 -log(M). Also, in the series with CYP2D6 [4], the CYP2D6 activity (% of vehicle), dextrorphan formation rate in human liver microsomes, 10 µM peptide was 21 % of vehicle. Moreover, in series [5], the Emax, cAMP efficacy assay in MC3T3-E1 cells stood at 5.5 pmol/well; the agonist potency relative to SEQ ID NO: 2, cAMP in MC3T3-E1 cells is 2 to 3 fold weaker; the pEC50, cAMP efficacy assay in MC3T3-E1 cells is 8.6 -log(M).

B2: H-Ac5c-Val-Aib-Glu-Ile-Gln-Leu-Met-His-Gln-Har-Ala-Lys-Trp-NH2 (peptide)
chain: H-[Ac5c]V[Aib]EIQLMHQ[hArg]AKW-NH2
SMILES: CC[C@H](C)[C@H](NC(=O)[C@H](CCC(=O)O)NC(=O)C(C)(C)NC(=O)[C@@H](NC(=O)C1(N)CCCC1)C(C)C)C(=O)N[C@@H](CCC(N)=O)C(=O)N[C@@H](CC(C)C)C(=O)N[C@@H](CCSC)C(=O)N[C@@H](Cc1c[nH]cn1)C(=O)N[C@@H](CCC(N)=O)C(=O)N[C@@H](CCCCNC(=N)N)C(=O)N[C@@H](C)C(=O)N[C@@H](CCCCN)C(=O)N[C@@H](Cc1c[nH]c2ccccc12)C(N)=O
Regarding B2, in the series with Saos-2 PTH1R [3], the Emax, cAMP efficacy assay in Saos-2 cells (31T, trifluoroacetate salt) (relative to control (SEQ ID NO: 32)) amounted to 1.07 and the pEC50, cAMP efficacy assay in Saos-2 cells (31T, trifluoroacetate salt) is 7.66 -log(M). For the same molecule, in the series with CYP2D6 [4], the CYP2D6 activity (% of vehicle), dextrorphan formation rate in human liver microsomes, 10 µM peptide was 22 % of vehicle. Further, in series [5], the Emax, cAMP efficacy assay in MC3T3-E1 cells worked out at 4.5 pmol/well and the pEC50, cAMP efficacy assay in MC3T3-E1 cells was 8.4 -log(M).

Values taken from US20100048462A1, “TRUNCATED PTH PEPTIDES WITH A CYCLIC CONFORMATION” (Zealand Pharma A/S, priority 2006, published 2010).
